Experimental data published in paper PMC6900016, “Synthesis of Indomorphan Pseudo‐Natural Product Inhibitors of Glucose Transporters GLUT‐1 and ‐3” (Angewandte Chemie (International Ed. in English), 2019).

How the values were obtained:
[1] = system: A673; experiment: cells; set-up: Cell growth inhibition, sulforhodamine B total protein staining; conditions: Homo sapiens, A673; 72 h growth; read-out: Cell growth inhibition IC50/µM
Summary of the method: (§1)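 72 h exposure of a 94-cell-line panel to Glupin; growth measured by sulforhodamine B total-protein staining after TCA fixation (10% adherent, 50% suspension/semi-adherent, 1 h at 4 °C). IC50 derived from growth inhibition.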

[2] = system: CAKI1; experiment: cells; set-up: Cell growth inhibition, sulforhodamine B total protein staining; conditions: Homo sapiens, CAKI-1; 72 h growth; read-out: Cell growth inhibition IC50/µM
Summary of the method: as §1

[3] = molecular target: T1, GLUT-3 (Homo sapiens, UniProt P11169); experiment: CETSA/thermal proteome profiling in SW480 lysate (ΔTm […] °C by MS, […] °C by immunoblot, […]); 2DG uptake IC50 in DLD-1 GLUT1(-/-) cells; shift on GLUT-3 overexpression in CHO; assay type: cell-based
T1 construct: gene SLC2A3

[4] = system: T2, CHO; experiment: cells; set-up: 2DG uptake in transfected CHO cells, resazurin/diaphorase fluorescence; conditions: Cricetulus griseus, 0.5 h
T2 construct: transiently transfected with plasmid
Description: Transient overexpression of GLUT-1-4 in CHO cells and 2DG assay[7] 1x10^6 CHO cells were seeded 10 cm cell culture plates. After overnight incubation, cells were transfected with the different using Lipofectamine 3000 according to the supplier's instructions. Briefly, DNA-lipid SUPPORTING INFORMATION 264 complexes (100 µg plasmid DNA, DNA:lipid ratio 1:2) were prepared in OptiMEM and then added to the cells. In the case of GLUT-4-transfected cells, Insulin (100 µg/mL) was added to the transfection medium. After incubation for 48 h cells were either reseeded (40,000 cell/well) in 96-well plates for monitoring glucose uptake or cells were directly lysed and protein expression was subsequently analysed by means of immunoblotting. In the case of GLUT-4 transfected cells, Insulin (100 µg/mL) was added to the culture medium medium. The 2DG assay was performed as described above (low throughput resazurin-based assay). In the case of GLUT-4 transfected cells, Insulin (100 µg/mL) was added to the buffer. Resazurin-based 2DG uptake assay (low throughput) The 2DG uptake assay was performed by the Yamamoto et al. procedure.[6] 40000 cells/well were seeded in black CellBIND 96-well plates with clear bottom (Corning) and allowed to attach overnight. Cells were washed three times with KRB buffer (20 mM Hepes, 5 mM KH2PO4, 1 mM MgCl2, 1 mM CaCl2, 136 mM NaCl, 4.7 mM KCl, pH 7.4) containing 0.1% BSA and then incubated with the compounds or vehicle control and 1 mM 2DG for 30 min as described earlier. After washing three times with KRB buffer, the plates were sealed with adhesive aluminum foil and cells were lysed with 60 µL 1% CHAPS in 0.06 M HCl. Subsequently, plates were heated using microplate heater for 15 min at 65°C. After cooling down to room temperature, 20 µL 0.5 M Tris were added to neutralize the acid, before 80 µL of detection enzyme mixture were added. The detection enzyme solution contained 25 µM resazurin sodium salt (Acros), 6 U/mL glucose-6-phosphate dehydrogenase (G8404; Sigma Aldrich), 0.2 U/mL diaphorase from Chlostridium kluyveri (D5540; Sigma Aldrich) and 0.1mM NADP+ (Applichem) in 0.125 mM Tris, pH 8.4 with 0.1% BSA. After incubation for 2 h at room temperature, fluorescence intensity was measured at ex/em 530/590 nm using a Tecan M200 plate reader. Data were normalized to the respective DMSO

[5] = system: CHO; experiment: cells; set-up: 2-deoxyglucose uptake inhibition, resazurin/diaphorase, mock-transfected CHO cells; conditions: Cricetulus griseus, 0.5 h, empty vector
Description: Resazurin-based 2DG uptake assay (low throughput) The 2DG uptake assay was performed by the Yamamoto et al. procedure.[6] 40000 cells/well were seeded in black CellBIND 96-well plates with clear bottom (Corning) and allowed to attach overnight. Cells were washed three times with KRB buffer (20 mM Hepes, 5 mM KH2PO4, 1 mM MgCl2, 1 mM CaCl2, 136 mM NaCl, 4.7 mM KCl, pH 7.4) containing 0.1% BSA and then incubated with the compounds or vehicle control and 1 mM 2DG for 30 min as described earlier. After washing three times with KRB buffer, the plates were sealed with adhesive aluminum foil and cells were lysed with 60 µL 1% CHAPS in 0.06 M HCl. Subsequently, plates were heated using microplate heater for 15 min at 65°C. After cooling down to room temperature, 20 µL 0.5 M Tris were added to neutralize the acid, before 80 µL of detection enzyme mixture were added. The detection enzyme solution contained 25 µM resazurin sodium salt (Acros), 6 U/mL glucose-6-phosphate dehydrogenase (G8404; Sigma Aldrich), 0.2 U/mL diaphorase from Chlostridium kluyveri (D5540; Sigma Aldrich) and 0.1mM NADP+ (Applichem) in 0.125 mM Tris, pH 8.4 with 0.1% BSA. After incubation for 2 h at room temperature, fluorescence intensity was measured at ex/em 530/590 nm using a Tecan M200 plate reader. Data were normalized to the respective DMSO Transient overexpression of GLUT-1-4 in CHO cells and 2DG assay[7] […]

T1 sequence (P11169 whole entry): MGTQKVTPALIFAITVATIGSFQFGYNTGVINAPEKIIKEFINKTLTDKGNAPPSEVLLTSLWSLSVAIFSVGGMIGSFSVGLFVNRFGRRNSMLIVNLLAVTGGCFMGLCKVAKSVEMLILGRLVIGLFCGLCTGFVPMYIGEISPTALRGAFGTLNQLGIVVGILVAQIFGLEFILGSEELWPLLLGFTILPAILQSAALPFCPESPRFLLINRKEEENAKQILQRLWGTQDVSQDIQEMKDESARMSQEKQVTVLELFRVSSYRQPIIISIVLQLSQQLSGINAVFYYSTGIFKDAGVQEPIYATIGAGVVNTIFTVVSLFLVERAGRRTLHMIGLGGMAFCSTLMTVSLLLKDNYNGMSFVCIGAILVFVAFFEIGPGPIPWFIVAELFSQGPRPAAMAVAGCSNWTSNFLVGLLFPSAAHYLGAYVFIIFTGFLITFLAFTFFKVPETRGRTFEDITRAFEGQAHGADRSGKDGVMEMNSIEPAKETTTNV

In the case of `CCOC(=O)Cn1c2c(c3ccccc31)C[C@@H]1C[C@H]2C(OC)CN1C(=O)c1cccnc1SC` (single isomer, unassigned; (+)) [(+)-5a, Glupin], the IC50 [1] is reported as 3.64 µM, the IC50 [2] is reported as 0.805 µM and the IC50 [3] is reported as 11.4 ± 1.6 nM. For the same compound, the IC50 ([4]; pCMV-SPORT6-GLUT3) was 68 ± 7.2 nM, the IC50 ([4]; pTCN-GLUT1) was 162 ± 14 nM and the IC50 ([4]; pTCN-GLUT2) was 19.7 ± 2.4 nM. It also gave an IC50 ([4]; pTCN-GLUT4) of 18.9 ± 3.2 nM, an IC50 ([5]; pCMV-SPORT6, 2DG uptake) of 19.1 ± 2.9 nM and an IC50 ([5]; pTCN, 2DG uptake) of 19.2 ± 2.1 nM.
